According to ChEMBL document CHEMBL3885881, “DrugMatrix”:

Species: Rattus norvegicus
Assay: DrugMatrix - Regimen: Daily Repeat
Format: toxicity, organism-based, Sprague-Dawley
Set-up: regimen Daily Repeat, gender Male, age 6-8 weeks
Details: in vivo, po, route oral GAVAGE, […]; for ABSOLUTE BASOPHIL / ABSOLUTE EOSINOPHIL / ABSOLUTE LYMPHOCYTE / ABSOLUTE MONOCYTE / ABSOLUTE SEGMENTED NEUTROPHIL / BASOPHIL / EOSINOPHIL / ERYTHROCYTE COUNT / HEMATOCRIT / HEMOGLOBIN / LEUKOCYTE COUNT / LYMPHOCYTE / MEAN CORPUSCULAR HEMOGLOBIN / MEAN CORPUSCULAR HEMOGLOBIN CONCENTRATION / MEAN CORPUSCULAR VOLUME / MONOCYTE / NEUTROPHIL / NUCLEATED RED BLOOD CELLS / PLATELET COUNT: tissue Blood; for ALANINE AMINOTRANSFERASE / ALBUMIN / ALKALINE PHOSPHATASE / ASPARTATE AMINOTRANSFERASE / BLOOD UREA NITROGEN / CARBON DIOXIDE / CHLORIDE / CHOLESTEROL / CREATINE PHOSPHOKINASE / CREATININE / GLUCOSE / LACTATE DEHYDROGENASE / LIPASE / PHOSPHORUS / POTASSIUM / SODIUM / TOTAL BILIRUBIN / TOTAL PROTEIN / URIC ACID: tissue Plasma
[1] = 18 mg/kg, 72 h, dose level High, time 3 day
[2] = 18 mg/kg, 120 h, dose level High, time 5 day
[3] = 72 h, dose 0.28 mg/Kg, dose level Low, time 3 day
[4] = 120 h, dose 0.28 mg/Kg, dose level Low, time 5 day

## CC(C(=O)O)c1ccc(CC2CCCC2=O)cc1 (configuration not stated) [LOXOPROFEN]
[1]
  ABSOLUTE BASOPHIL: 0 CELLS/uL
  ABSOLUTE EOSINOPHIL: 0 CELLS/uL
  ABSOLUTE LYMPHOCYTE: 12885.33 CELLS/uL
  ABSOLUTE MONOCYTE: 42.67 CELLS/uL
  ABSOLUTE SEGMENTED NEUTROPHIL: 1338.67 CELLS/uL
  BASOPHIL: 0%
  EOSINOPHIL: 0%
  ERYTHROCYTE COUNT: 5.2 x10E6/uL
  HEMATOCRIT: 32.2%
  HEMOGLOBIN: 13.03 G/DL
  LEUKOCYTE COUNT: 14.27 x10E3/uL
  LYMPHOCYTE: 90.67%
  MEAN CORPUSCULAR HEMOGLOBIN: 25.1 pg
  MEAN CORPUSCULAR HEMOGLOBIN CONCENTRATION: 40.53 G/DL
  MEAN CORPUSCULAR VOLUME: 61.93 fL
  MONOCYTE: 0.33%
  NEUTROPHIL: 9%
  NUCLEATED RED BLOOD CELLS: 0 /100WBC
  PLATELET COUNT: 1130.33 x10E3/uL
  ALANINE AMINOTRANSFERASE: 76.67 u/L
  ALBUMIN: 4.03 G/DL
  ALKALINE PHOSPHATASE: 346.33 u/L
  ASPARTATE AMINOTRANSFERASE: 93 u/L
  BLOOD UREA NITROGEN: 15.67 mg/dL
  CARBON DIOXIDE: 30.33 mmol/L
  CHLORIDE: 102.33 MEQ/L
  CHOLESTEROL: 83 mg/dL
  CREATINE PHOSPHOKINASE: 423.33 u/L
  CREATININE: 0.36 mg/dL
  GLUCOSE: 148.67 mg/dL
  LACTATE DEHYDROGENASE: 236.33 u/L
  LIPASE: 13 u/L
  PHOSPHORUS: 11.07 mg/dL
  POTASSIUM: 6.41 MEQ/L
  SODIUM: 143.6 MEQ/L
  TOTAL BILIRUBIN: 0.27 mg/dL
  TOTAL PROTEIN: 5.63 G/DL
  URIC ACID: 1.1 mg/dL
[2]
  ABSOLUTE BASOPHIL: 0 CELLS/uL
  ABSOLUTE EOSINOPHIL: 118 CELLS/uL
  ABSOLUTE LYMPHOCYTE: 14441.67 CELLS/uL
  ABSOLUTE MONOCYTE: 168.67 CELLS/uL
  ABSOLUTE SEGMENTED NEUTROPHIL: 1438.33 CELLS/uL
  BASOPHIL: 0%
  EOSINOPHIL: 1%
  ERYTHROCYTE COUNT: 5.58 x10E6/uL
  HEMATOCRIT: 34.33%
  HEMOGLOBIN: 13.8 G/DL
  LEUKOCYTE COUNT: 16.17 x10E3/uL
  LYMPHOCYTE: 90%
  MEAN CORPUSCULAR HEMOGLOBIN: 24.77 pg
  MEAN CORPUSCULAR HEMOGLOBIN CONCENTRATION: 40.2 G/DL
  MEAN CORPUSCULAR VOLUME: 61.53 fL
  MONOCYTE: 1%
  NEUTROPHIL: 8%
  NUCLEATED RED BLOOD CELLS: 0 /100WBC
  PLATELET COUNT: 1237 x10E3/uL
  ALANINE AMINOTRANSFERASE: 60.67 u/L
  ALBUMIN: 4.13 G/DL
  ALKALINE PHOSPHATASE: 356.33 u/L
  ASPARTATE AMINOTRANSFERASE: 101 u/L
  BLOOD UREA NITROGEN: 17 mg/dL
  CARBON DIOXIDE: 27.67 mmol/L
  CHLORIDE: 103.33 MEQ/L
  CHOLESTEROL: 67.67 mg/dL
  CREATINE PHOSPHOKINASE: 434 u/L
  CREATININE: 0.18 mg/dL
  GLUCOSE: 141 mg/dL
  LACTATE DEHYDROGENASE: 660 u/L
  LIPASE: 10.67 u/L
  PHOSPHORUS: 11.17 mg/dL
  POTASSIUM: 5.74 MEQ/L
  SODIUM: 144.53 MEQ/L
  TOTAL BILIRUBIN: 0.23 mg/dL
  TOTAL PROTEIN: 5.77 G/DL
  URIC ACID: 1.33 mg/dL
[3]
  ABSOLUTE BASOPHIL: 0 CELLS/uL
  ABSOLUTE EOSINOPHIL: 0 CELLS/uL
  ABSOLUTE LYMPHOCYTE: 8216 CELLS/uL
  ABSOLUTE MONOCYTE: 105.67 CELLS/uL
  ABSOLUTE SEGMENTED NEUTROPHIL: 1111.67 CELLS/uL
  BASOPHIL: 0%
  EOSINOPHIL: 0%
  ERYTHROCYTE COUNT: 5.18 x10E6/uL
  HEMATOCRIT: 32.3%
  HEMOGLOBIN: 13.07 G/DL
  LEUKOCYTE COUNT: 9.43 x10E3/uL
  LYMPHOCYTE: 87.33%
  MEAN CORPUSCULAR HEMOGLOBIN: 25.23 pg
  MEAN CORPUSCULAR HEMOGLOBIN CONCENTRATION: 40.47 G/DL
  MEAN CORPUSCULAR VOLUME: 62.37 fL
  MONOCYTE: 1%
  NEUTROPHIL: 11.67%
  NUCLEATED RED BLOOD CELLS: 0 /100WBC
  PLATELET COUNT: 1232.67 x10E3/uL
  ALANINE AMINOTRANSFERASE: 78.33 u/L
  ALBUMIN: 4 G/DL
  ALKALINE PHOSPHATASE: 425 u/L
  ASPARTATE AMINOTRANSFERASE: 95.33 u/L
  BLOOD UREA NITROGEN: 17 mg/dL
  CARBON DIOXIDE: 30 mmol/L
  CHLORIDE: 101.33 MEQ/L
  CHOLESTEROL: 69 mg/dL
  CREATINE PHOSPHOKINASE: 495.67 u/L
  CREATININE: 0.2 mg/dL
  GLUCOSE: 186.33 mg/dL
  LACTATE DEHYDROGENASE: 214.33 u/L
  LIPASE: 8.67 u/L
  PHOSPHORUS: 12.6 mg/dL
  POTASSIUM: 6.25 MEQ/L
  SODIUM: 143.63 MEQ/L
  TOTAL BILIRUBIN: 0.17 mg/dL
  TOTAL PROTEIN: 5.5 G/DL
  URIC ACID: 1.43 mg/dL
[4]
  ABSOLUTE BASOPHIL: 0 CELLS/uL
  ABSOLUTE EOSINOPHIL: 43.33 CELLS/uL
  ABSOLUTE LYMPHOCYTE: 10902.67 CELLS/uL
  ABSOLUTE MONOCYTE: 142 CELLS/uL
  ABSOLUTE SEGMENTED NEUTROPHIL: 678.67 CELLS/uL
  BASOPHIL: 0%
  EOSINOPHIL: 0.33%
  ERYTHROCYTE COUNT: 5.61 x10E6/uL
  HEMATOCRIT: 35.07%
  HEMOGLOBIN: 14.17 G/DL
  LEUKOCYTE COUNT: 11.77 x10E3/uL
  LYMPHOCYTE: 93%
  MEAN CORPUSCULAR HEMOGLOBIN: 25.23 pg
  MEAN CORPUSCULAR HEMOGLOBIN CONCENTRATION: 40.4 G/DL
  MEAN CORPUSCULAR VOLUME: 62.43 fL
  MONOCYTE: 1.33%
  NEUTROPHIL: 5.33%
  NUCLEATED RED BLOOD CELLS: 0 /100WBC
  PLATELET COUNT: 984.33 x10E3/uL
  ALANINE AMINOTRANSFERASE: 57 u/L
  ALBUMIN: 4.3 G/DL
  ALKALINE PHOSPHATASE: 291 u/L
  ASPARTATE AMINOTRANSFERASE: 85.33 u/L
  BLOOD UREA NITROGEN: 18 mg/dL
  CARBON DIOXIDE: 26.67 mmol/L
  CHLORIDE: 103.67 MEQ/L
  CHOLESTEROL: 68.67 mg/dL
  CREATINE PHOSPHOKINASE: 238 u/L
  CREATININE: 0.23 mg/dL
  GLUCOSE: 187.33 mg/dL
  LACTATE DEHYDROGENASE: 153.33 u/L
  LIPASE: 11 u/L
  PHOSPHORUS: 11.87 mg/dL
  POTASSIUM: 5.74 MEQ/L
  SODIUM: 144.4 MEQ/L
  TOTAL BILIRUBIN: 0.2 mg/dL
  TOTAL PROTEIN: 5.83 G/DL
  URIC ACID: 1.6 mg/dL
